From patent US8318731B2, “Pyrrolopyrimidines” (Janssen Pharmaceutica NV, priority 2007, dated 2012)

Tests used:
H1299 = assay: Cellular proliferation assay (Alamar blue), H1299; type: cell-based; conditions: Homo sapiens, NCI-H1299, H1299 cells; 10% FCS; 72 h with compound; Alamar blue 4 h; read-out: pIC50 H1299 (converted)
How it was run: (§1)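 Viable cell number is determined by Alamar blue conversion after cells are treated with compound for 72 hours, following 24 hours of growth without compound in 10% FCS. The effect is calculated against control cells.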

PLK4 (h) = target: T1, PLK4 (h) (Homo sapiens, UniProt O00444); assay: PLK-4 human kinase scintillation proximity assay (SPA); type: biochemical; conditions: 1 μM ATP, 60 minutes at r.t., read-out: PLK4 pIC50 (converted)
T1 sequence (O00444 1-970): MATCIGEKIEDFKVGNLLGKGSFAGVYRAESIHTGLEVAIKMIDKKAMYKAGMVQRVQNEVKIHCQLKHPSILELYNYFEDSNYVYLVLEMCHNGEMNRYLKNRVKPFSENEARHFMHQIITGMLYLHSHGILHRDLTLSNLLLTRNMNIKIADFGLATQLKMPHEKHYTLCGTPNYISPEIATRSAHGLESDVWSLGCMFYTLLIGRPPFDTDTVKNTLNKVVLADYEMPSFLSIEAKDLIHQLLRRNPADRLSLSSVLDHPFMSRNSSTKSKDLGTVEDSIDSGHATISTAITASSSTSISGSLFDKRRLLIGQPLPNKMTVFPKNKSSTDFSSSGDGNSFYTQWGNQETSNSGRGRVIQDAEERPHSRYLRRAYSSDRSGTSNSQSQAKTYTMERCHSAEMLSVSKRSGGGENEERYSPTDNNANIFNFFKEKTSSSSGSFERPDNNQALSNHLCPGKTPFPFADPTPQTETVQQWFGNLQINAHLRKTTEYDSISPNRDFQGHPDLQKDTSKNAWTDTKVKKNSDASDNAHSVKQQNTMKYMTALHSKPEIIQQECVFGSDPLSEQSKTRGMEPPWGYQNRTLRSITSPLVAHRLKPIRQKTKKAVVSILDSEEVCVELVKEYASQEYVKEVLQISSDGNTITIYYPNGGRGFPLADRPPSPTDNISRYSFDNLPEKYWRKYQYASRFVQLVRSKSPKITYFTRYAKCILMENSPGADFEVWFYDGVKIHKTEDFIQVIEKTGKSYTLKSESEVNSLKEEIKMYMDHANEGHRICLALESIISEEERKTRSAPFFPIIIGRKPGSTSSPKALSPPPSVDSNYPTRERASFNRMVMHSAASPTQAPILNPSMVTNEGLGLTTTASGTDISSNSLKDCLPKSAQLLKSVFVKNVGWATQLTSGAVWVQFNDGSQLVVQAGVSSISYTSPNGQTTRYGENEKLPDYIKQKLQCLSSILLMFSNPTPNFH
How it was run: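 Human PLK4 (19 μg/ml) reacted with 10 μM biotinylated peptide, 1 μM ATP plus 2 nM [γ-33P]ATP in HEPES pH 8.0 with MgCl2, NaCl, NaF and DTT for 60 min at r.t. After an EDTA stop, phosphorylated substrate was captured on streptavidin PVT SPA beads and scintillation imaged.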

A2780 = assay: Cellular proliferation assay (Alamar blue), A2780; type: cell-based; conditions: Homo sapiens, A2780, A2780 cells; 10% FCS; 72 h with compound; Alamar blue 24 h; read-out: pIC50 A2780 (converted)
How it was run: (§2)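 Cells seeded 24 h, then exposed to compounds for 72 h in 10% FCS at 37° C, 5% CO2. Viability by Alamar blue (resazurin 9 μg/ml) fluorescence at 544/590 nm after 4 h (HCT-116), 6 h (U87-MG) or 24 h (A2780, PC3) dye incubation; effect expressed relative to control cells.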

HCT-116 = assay: Cellular proliferation assay (Alamar blue), HCT-116; type: cell-based; conditions: Homo sapiens; HCT-116 cells; 10% FCS; 72 h with compound; Alamar blue 4 h; read-out: pIC50 HCT-116 (converted)
How it was run: as §2

MDA-MB-231 = assay: Cellular proliferation assay (Alamar blue), MDA-MB-231; type: cell-based; conditions: Homo sapiens, MDA-MB-231, MDA-MB-231 cells; 10% FCS; 72 h with compound; Alamar blue 24 h; read-out: pIC50 MDA/MB231 (converted)
How it was run: as §1

U87-MG = assay: Cellular proliferation assay (Alamar blue), U87-MG; type: cell-based; conditions: Homo sapiens, U-87 MG; U87-MG cells; 10% FCS; 72 h with compound; Alamar blue 6 h; read-out: pIC50 U87MG (converted)
How it was run: as §2

PC3 = assay: Cellular proliferation assay (Alamar blue), PC3; type: cell-based; conditions: Homo sapiens, PC-3, PC-3 cells; 10% FCS; 72 h with compound; Alamar blue 24 h; read-out: pIC50 PC-3 (converted)
How it was run: as §2

| SMILES | IC50 (H1299) | IC50 (PLK4 (h)) | IC50 (A2780) | melting point | IC50 (HCT-116) | IC50 (MDA-MB-231) | IC50 (U87-MG) | IC50 (PC3) |
| --- | --- | --- | --- | --- | --- | --- | --- | --- |
| COc1ccc(OCCCOc2ccc3cc2OCC(=O)N(C)CCCN(C)Cc2c[nH]c4ncnc(c24)N3)cc1 [Compound 78] | 2510 nM | 50.1 nM | 1260 nM | 222.2 °C | 1260 nM | 6310 nM | 3980 nM | 5010 nM |
| COc1ccc2cc1OCC(=O)N(C)CCCN(C)Cc1c[nH]c3ncnc(c13)N2 [Compound 7] | 1000 nM | 39.8 nM | 631 nM | 267.9 °C | 501 nM | 1580 nM | 1260 nM | 2000 nM |
| CCOCCOc1ccc2cc1OCC(=O)N(C)CCCN(C)Cc1c[nH]c3ncnc(c13)N2 [Compound 70] | 501 nM | 25.1 nM | 79.4 nM | 237.8 °C | 100 nM | 2510 nM | 1580 nM | 3980 nM |
| CCOCCOc1ccc2cc1OCC(=O)N(C)CCCN(C)Cc1cn(C)c3ncnc(c13)N2 [Compound 81] | 631 nM | 79.4 nM | 200 nM | 221 °C | 251 nM | 2000 nM | 501 nM | > 10000 nM |
| COc1ccc2cc1OCC(=O)N(C)CCN(C)Cc1c[nH]c3ncnc(c13)N2 [Compound 10] | > 10000 nM | 126 nM | > 10000 nM | 249.3 °C | > 10000 nM | > 10000 nM | > 10000 nM | > 10000 nM |
| CCOCCOc1ccc2cc1OCC(=O)N(C)CCCNCc1c[nH]c3ncnc(c13)N2 [Compound 75] | > 10000 nM | 39.8 nM | 631 nM | 237.4 °C | 794 nM | > 10000 nM | > 10000 nM | > 10000 nM |
| CN1CCCN(C)C(=O)COc2cc(ccc2OCCNc2ccc(Cl)cc2)Nc2ncnc3[nH]cc(c23)C1 [Compound 79] | 794 nM | 100 nM | 200 nM | 269.3 °C | 251 nM | 5010 nM | 3160 nM | 3980 nM |
